3 compounds from ChEMBL document CHEMBL5653631, “A Potent and Selective ULK1 Inhibitor Suppresses Autophagy and Sensitizes Cancer Cells to Nutrient Stress” (iScience, 2018) can be followed below.

In assay [1] the target is Ribosomal protein S6 kinase alpha-4 (Homo sapiens) (UniProt O75676). In words: Inhibition of human recombinant MSK2 at 40 nM in presence of ATP by radiometric assay relative to control.
Assay [2] deals with Serine/threonine-protein kinase WNK1 (Homo sapiens) (UniProt Q9H4A3). In words: Inhibition of human recombinant Wnk1 at 40 nM in presence of ATP by radiometric assay relative to control.
Assay [3] deals with Ribosomal protein S6 kinase alpha-5 (Homo sapiens) (UniProt O75582). In words: Inhibition of human recombinant MSK1 at 500 nM in presence of ATP by radiometric assay relative to control.
The target of assay [4] is T1, Mitogen-activated protein kinase 13 (Homo sapiens) (UniProt O15264).
T1 sequence (whole entry): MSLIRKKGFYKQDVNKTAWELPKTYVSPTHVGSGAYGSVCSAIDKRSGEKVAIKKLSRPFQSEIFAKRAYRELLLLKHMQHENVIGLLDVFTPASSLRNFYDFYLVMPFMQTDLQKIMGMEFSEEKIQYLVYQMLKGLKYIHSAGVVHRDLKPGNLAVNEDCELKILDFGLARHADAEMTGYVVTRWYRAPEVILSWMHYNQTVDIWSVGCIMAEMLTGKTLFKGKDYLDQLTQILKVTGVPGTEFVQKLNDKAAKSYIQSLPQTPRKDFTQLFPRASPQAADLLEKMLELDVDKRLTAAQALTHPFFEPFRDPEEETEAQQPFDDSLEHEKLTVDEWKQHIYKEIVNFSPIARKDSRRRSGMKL
As to the kind of experiment: Inhibition of human recombinant p38delta at 500 nM in presence of ATP by radiometric assay relative to control.

The target in assay [5] is T2, Serine/threonine-protein kinase DCLK2 (Homo sapiens) (UniProt Q8N568).
T2 sequence (whole entry): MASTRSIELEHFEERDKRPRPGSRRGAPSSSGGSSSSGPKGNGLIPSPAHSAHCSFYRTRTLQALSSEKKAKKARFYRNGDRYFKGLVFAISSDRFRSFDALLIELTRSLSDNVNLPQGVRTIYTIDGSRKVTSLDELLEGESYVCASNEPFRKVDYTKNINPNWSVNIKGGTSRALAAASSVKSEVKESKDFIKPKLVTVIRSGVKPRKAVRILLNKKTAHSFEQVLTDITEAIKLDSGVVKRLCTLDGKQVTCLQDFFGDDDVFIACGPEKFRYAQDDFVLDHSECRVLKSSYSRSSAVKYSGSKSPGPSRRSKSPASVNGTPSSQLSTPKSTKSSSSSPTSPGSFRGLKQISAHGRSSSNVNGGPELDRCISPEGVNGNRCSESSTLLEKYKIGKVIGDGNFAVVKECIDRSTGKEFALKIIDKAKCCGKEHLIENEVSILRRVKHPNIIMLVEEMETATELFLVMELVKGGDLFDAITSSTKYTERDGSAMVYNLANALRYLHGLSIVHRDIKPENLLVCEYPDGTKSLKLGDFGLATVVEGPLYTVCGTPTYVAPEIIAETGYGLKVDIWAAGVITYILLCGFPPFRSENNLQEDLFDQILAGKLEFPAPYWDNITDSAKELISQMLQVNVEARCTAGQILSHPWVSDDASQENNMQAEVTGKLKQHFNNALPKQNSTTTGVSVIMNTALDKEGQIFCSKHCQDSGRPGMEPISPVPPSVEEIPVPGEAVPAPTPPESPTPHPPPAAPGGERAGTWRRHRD
In words: Inhibition of human recombinant DCAMKL2 at 500 nM related to control ULK1.

Assay [6] has as its target T3, Myotonin-protein kinase (Homo sapiens) (UniProt Q09013).
T3 sequence (whole entry): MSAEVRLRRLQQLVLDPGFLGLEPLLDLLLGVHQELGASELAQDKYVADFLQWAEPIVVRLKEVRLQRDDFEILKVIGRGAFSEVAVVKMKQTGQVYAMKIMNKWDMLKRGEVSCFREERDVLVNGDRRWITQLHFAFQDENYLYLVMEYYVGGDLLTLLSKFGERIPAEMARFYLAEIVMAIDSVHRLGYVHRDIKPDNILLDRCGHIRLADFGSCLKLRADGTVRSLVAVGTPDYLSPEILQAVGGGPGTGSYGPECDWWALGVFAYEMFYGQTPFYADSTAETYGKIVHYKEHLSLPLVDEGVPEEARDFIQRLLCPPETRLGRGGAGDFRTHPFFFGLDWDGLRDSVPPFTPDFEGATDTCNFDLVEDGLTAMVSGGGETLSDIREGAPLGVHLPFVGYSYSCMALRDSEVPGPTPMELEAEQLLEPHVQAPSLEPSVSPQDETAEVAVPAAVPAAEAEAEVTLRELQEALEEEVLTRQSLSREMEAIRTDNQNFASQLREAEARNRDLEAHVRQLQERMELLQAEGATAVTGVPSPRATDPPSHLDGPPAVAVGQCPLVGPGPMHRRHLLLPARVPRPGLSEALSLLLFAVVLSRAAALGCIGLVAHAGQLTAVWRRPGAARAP
In words: Inhibition of human recombinant DMPK1 at 15 nM in presence of ATP by radiometric assay relative to control.

Ribosomal protein S6 kinase alpha-5 (Homo sapiens), sequence (O75582 whole entry, looked up): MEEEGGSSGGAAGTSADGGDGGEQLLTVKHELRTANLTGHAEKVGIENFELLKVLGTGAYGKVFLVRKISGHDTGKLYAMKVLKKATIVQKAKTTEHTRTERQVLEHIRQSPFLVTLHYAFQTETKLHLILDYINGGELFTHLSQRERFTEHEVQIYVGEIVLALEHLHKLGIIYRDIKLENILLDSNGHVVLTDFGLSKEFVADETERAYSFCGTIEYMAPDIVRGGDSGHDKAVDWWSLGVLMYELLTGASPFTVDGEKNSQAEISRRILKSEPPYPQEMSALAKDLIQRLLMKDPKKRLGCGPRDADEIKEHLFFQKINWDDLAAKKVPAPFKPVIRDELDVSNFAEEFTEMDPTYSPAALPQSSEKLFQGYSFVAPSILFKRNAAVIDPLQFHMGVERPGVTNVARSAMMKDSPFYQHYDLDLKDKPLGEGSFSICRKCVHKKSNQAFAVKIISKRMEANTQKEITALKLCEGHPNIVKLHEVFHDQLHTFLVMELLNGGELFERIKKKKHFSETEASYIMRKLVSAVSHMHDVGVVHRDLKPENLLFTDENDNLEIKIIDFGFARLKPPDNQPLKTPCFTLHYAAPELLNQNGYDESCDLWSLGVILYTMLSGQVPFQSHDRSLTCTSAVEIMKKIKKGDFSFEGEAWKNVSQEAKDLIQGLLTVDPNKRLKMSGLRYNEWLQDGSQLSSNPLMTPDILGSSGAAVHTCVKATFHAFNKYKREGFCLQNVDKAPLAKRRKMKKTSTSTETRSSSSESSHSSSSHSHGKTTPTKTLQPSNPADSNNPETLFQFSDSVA
Ribosomal protein S6 kinase alpha-4 (Homo sapiens), sequence (O75676 whole entry, looked up): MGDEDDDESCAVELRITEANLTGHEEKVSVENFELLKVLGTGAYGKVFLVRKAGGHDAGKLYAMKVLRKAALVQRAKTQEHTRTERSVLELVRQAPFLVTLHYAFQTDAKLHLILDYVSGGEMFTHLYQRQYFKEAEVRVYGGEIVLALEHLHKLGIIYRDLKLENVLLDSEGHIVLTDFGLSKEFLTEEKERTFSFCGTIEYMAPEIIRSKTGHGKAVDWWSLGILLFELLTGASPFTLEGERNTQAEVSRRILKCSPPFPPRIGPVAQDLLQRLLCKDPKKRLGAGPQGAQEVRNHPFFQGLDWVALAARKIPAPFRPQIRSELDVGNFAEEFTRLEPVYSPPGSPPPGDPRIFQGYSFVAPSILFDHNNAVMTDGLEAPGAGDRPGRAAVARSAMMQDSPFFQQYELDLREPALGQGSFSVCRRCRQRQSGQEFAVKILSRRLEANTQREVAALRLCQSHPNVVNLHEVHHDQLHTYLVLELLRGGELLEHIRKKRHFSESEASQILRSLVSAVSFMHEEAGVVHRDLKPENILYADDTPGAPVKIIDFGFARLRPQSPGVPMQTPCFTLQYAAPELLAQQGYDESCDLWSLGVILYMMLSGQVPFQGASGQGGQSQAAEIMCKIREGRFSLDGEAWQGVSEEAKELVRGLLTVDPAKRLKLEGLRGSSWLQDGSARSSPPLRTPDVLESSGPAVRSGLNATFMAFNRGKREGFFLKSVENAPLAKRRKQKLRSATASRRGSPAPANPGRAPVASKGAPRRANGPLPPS
Serine/threonine-protein kinase WNK1 (Homo sapiens), sequence (Q9H4A3 whole entry, looked up): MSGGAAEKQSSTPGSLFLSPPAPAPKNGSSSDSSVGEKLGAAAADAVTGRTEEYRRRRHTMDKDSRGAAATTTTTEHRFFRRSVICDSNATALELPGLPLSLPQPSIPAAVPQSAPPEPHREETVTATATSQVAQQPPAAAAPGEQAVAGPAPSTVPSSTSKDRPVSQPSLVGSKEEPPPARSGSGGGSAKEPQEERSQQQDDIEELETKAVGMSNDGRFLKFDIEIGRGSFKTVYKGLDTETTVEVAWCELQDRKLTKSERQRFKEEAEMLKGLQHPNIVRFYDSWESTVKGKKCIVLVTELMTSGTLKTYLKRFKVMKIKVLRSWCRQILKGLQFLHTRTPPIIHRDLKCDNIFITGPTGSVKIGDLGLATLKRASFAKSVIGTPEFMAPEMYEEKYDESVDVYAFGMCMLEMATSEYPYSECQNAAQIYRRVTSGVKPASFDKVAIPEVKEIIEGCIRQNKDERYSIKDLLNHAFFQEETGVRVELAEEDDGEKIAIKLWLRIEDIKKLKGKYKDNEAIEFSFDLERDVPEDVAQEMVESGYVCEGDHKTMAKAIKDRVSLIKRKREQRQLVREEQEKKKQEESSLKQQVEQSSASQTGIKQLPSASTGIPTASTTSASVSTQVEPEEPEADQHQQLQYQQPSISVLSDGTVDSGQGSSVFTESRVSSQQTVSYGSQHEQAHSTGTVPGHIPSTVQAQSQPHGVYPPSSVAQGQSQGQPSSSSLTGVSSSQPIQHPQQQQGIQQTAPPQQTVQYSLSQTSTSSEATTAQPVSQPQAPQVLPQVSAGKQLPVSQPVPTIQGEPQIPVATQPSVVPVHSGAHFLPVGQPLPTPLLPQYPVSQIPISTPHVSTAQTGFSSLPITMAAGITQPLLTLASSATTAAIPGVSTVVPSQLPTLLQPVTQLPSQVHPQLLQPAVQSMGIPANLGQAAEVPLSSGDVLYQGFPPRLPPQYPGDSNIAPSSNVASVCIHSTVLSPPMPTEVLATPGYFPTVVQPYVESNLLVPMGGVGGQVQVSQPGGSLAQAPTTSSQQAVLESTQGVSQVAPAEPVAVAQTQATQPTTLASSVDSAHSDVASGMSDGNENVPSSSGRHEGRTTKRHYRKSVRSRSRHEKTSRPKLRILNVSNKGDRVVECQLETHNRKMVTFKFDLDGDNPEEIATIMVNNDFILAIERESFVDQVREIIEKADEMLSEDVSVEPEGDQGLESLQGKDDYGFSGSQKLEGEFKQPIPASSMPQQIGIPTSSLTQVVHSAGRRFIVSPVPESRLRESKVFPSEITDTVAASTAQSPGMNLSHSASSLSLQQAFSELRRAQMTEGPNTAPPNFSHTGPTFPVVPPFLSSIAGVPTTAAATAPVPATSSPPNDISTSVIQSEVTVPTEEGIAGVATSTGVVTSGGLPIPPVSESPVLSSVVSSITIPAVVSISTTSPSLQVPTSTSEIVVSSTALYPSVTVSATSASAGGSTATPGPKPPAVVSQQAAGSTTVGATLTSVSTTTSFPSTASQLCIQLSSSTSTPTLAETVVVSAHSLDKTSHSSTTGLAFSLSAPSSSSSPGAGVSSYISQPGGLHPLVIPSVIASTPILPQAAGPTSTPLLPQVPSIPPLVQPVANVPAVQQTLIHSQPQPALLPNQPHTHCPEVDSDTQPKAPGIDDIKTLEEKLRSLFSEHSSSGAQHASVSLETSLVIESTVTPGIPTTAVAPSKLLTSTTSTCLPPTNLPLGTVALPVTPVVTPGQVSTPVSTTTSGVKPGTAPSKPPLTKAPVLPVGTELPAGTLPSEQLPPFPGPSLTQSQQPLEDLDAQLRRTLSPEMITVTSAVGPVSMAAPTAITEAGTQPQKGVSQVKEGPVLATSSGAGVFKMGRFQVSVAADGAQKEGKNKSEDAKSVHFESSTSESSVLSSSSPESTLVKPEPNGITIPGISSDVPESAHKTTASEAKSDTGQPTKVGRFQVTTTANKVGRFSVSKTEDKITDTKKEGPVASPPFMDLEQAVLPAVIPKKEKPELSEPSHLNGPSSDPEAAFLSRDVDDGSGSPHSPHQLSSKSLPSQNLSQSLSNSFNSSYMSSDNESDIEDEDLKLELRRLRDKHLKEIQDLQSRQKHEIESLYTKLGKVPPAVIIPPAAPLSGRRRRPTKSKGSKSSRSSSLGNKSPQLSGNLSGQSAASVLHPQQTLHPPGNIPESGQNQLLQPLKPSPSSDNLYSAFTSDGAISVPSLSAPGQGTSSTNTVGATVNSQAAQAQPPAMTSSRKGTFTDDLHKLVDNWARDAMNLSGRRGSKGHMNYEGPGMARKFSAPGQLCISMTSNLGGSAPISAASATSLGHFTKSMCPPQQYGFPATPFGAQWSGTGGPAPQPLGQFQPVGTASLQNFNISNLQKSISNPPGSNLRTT

What is called inhibition is the percentage by which the read-out fell short of the control. In the case of `O=C(N[C@@H](C1CC1)C(F)(F)F)c1cc(-c2cnn3cc(-c4ccc(F)cc4)cnc23)cs1`, the inhibition was found to be 0% in assay [1] and 12% in assay [2].
As for `CNC(=O)c1ccccc1Oc1nc(Nc2cc(OC)c(OC)c(OC)c2)ncc1Br`, the inhibition was 11% in assay [3] and 19% in assay [4]. For the same compound, in assay [5], the fold change (FC) worked out at 0.
`CC(C)[C@H](NC(=O)c1cc(-c2cnn3cc(-c4ccc(OCCN5CCCCC5)cc4)cnc23)cs1)C(F)(F)F`: the inhibition in assay [6] was found to be 0%.
